What was measured:
[1] = target: T1, RET (Homo sapiens, UniProt P07949); assay: HTRF/ADP-Glo kinase selectivity panel; type: biochemical; details: 500 nM, read-out: 1D228(%inhibition)@500nM
T1 construct: purchased Invitrogen (c-Met, TRKA, TRKB, TRKC)
Protocol: (§1) The compound was serial diluted from 10 mM stock in DMSO, dilute the test compound to 0.1 mM (200 times the specified test concentration). 2 × ATP & Substrate solution and 2 × kinase & Metal solution were prepared using assay buffer; Transfer 25 nL compound to 384 assay plate by Echo 655; After centrifugation, add 2.5 μL 2 × kinase/metal ion solution 384 assay plate, and incubate at 25 °C for 10 min. 2 × XL665 & Antibody solution were prepared with detection buffer; 5 μL of Kinase Detection Reagent was added to the well, and incubated for 60 min at 25 °C; The fluorescence signals of 620 nm (Cryptate) and 665 nm (XL665) were read by microtiter plate reader; […]

[2] = target: T2, EGFR T790M L858R (Homo sapiens, UniProt P00533, L858R/T790M); assay: HTRF/ADP-Glo kinase selectivity panel; type: biochemical; details: 500 nM, read-out: 1D228(%inhibition)@500nM
T2 construct: purchased Invitrogen (c-Met, TRKA, TRKB, TRKC)
Protocol: as §1

[3] = target: T3, ROS1 (Homo sapiens, UniProt P08922); assay: HTRF/ADP-Glo kinase selectivity panel; type: biochemical; details: 500 nM, read-out: 1D228(%inhibition)@500nM
T3 construct: purchased Invitrogen (c-Met, TRKA, TRKB, TRKC)
Protocol: as §1

[4] = target: T4, CSF1R (Homo sapiens, UniProt P07333); assay: HTRF/ADP-Glo kinase selectivity panel; type: biochemical; details: 500 nM, read-out: 1D228(%inhibition)@500nM
T4 construct: purchased Invitrogen (c-Met, TRKA, TRKB, TRKC)
Protocol: as §1

[5] = target: T5, MET (Homo sapiens, UniProt P08581); assay: HTRF/ADP-Glo kinase selectivity panel; type: biochemical; details: 500 nM, read-out: 1D228(%inhibition)@500nM
T5 construct: purchased Invitrogen (c-Met, TRKA, TRKB, TRKC)
Protocol: as §1

[6] = target: T6, TRKC (Homo sapiens, UniProt Q16288); assay: HTRF/ADP-Glo kinase selectivity panel; type: biochemical; details: 500 nM, read-out: 1D228(%inhibition)@500nM
T6 construct: purchased Invitrogen (c-Met, TRKA, TRKB, TRKC)
Protocol: as §1

[7] = test system: MHCC97H; assay: CCK8 antiproliferative assay; type: cell-based; details: Homo sapiens, CCK-8, 72 h, read-out: IC50, cell proliferation
Protocol: (§2) For cytotoxicity assay, the cells grown in the logarithmic phase were seeded into 96-well plates (7 × 10^3 cells/well) for 24 h, then exposed to different concentrations (10, 5, 1, 0.1, 0.01 and 0.001 μM) of the test compounds for 72 h. After attached cells were incubated with CCK8 (Sigma, USA) for another 1–4 h. Then the absorbance at 450 nm was measured using a multifunction microplate reader (Molecular Devices, Flex Station 3), and each experiment was performed at least in triplicate.

[8] = test system: HS746T; assay: CCK8 antiproliferative assay; type: cell-based; details: Homo sapiens; HS746T, CCK8, 72 h; read-out: IC50, cell proliferation
Protocol: as §2

[9] = test system: ASPC1; assay: CCK8 antiproliferative assay; type: cell-based; details: Homo sapiens; ASPC1, CCK8, 72 h; read-out: IC50, cell proliferation
Protocol: as §2

[10] = test system: MKN45; assay: CCK8 antiproliferative assay; type: cell-based; details: Homo sapiens, MKN-45; MKN45, CCK-8, 72 h; read-out: IC50, cell proliferation
Protocol: as §2

T6 sequence (Q16288 32-839): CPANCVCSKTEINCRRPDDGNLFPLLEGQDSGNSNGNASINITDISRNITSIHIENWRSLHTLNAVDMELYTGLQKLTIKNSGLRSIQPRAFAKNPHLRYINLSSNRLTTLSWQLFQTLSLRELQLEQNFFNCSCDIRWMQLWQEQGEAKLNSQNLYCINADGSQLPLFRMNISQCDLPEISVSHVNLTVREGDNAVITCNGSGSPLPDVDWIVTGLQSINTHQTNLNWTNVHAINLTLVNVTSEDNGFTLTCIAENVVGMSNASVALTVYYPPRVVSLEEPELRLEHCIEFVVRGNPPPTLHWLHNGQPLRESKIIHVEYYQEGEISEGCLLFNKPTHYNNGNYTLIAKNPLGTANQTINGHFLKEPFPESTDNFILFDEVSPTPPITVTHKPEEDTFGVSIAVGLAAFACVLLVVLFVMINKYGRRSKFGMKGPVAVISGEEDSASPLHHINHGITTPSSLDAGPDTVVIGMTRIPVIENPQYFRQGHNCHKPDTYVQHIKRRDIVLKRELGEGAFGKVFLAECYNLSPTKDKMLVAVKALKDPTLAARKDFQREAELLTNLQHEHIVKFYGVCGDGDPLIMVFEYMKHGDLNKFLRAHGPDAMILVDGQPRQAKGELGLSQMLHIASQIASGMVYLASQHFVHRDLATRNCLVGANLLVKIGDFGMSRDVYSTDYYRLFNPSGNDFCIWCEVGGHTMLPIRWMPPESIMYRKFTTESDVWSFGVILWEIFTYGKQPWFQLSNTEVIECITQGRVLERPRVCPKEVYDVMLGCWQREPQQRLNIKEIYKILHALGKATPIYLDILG
T5 sequence (P08581 25-1390): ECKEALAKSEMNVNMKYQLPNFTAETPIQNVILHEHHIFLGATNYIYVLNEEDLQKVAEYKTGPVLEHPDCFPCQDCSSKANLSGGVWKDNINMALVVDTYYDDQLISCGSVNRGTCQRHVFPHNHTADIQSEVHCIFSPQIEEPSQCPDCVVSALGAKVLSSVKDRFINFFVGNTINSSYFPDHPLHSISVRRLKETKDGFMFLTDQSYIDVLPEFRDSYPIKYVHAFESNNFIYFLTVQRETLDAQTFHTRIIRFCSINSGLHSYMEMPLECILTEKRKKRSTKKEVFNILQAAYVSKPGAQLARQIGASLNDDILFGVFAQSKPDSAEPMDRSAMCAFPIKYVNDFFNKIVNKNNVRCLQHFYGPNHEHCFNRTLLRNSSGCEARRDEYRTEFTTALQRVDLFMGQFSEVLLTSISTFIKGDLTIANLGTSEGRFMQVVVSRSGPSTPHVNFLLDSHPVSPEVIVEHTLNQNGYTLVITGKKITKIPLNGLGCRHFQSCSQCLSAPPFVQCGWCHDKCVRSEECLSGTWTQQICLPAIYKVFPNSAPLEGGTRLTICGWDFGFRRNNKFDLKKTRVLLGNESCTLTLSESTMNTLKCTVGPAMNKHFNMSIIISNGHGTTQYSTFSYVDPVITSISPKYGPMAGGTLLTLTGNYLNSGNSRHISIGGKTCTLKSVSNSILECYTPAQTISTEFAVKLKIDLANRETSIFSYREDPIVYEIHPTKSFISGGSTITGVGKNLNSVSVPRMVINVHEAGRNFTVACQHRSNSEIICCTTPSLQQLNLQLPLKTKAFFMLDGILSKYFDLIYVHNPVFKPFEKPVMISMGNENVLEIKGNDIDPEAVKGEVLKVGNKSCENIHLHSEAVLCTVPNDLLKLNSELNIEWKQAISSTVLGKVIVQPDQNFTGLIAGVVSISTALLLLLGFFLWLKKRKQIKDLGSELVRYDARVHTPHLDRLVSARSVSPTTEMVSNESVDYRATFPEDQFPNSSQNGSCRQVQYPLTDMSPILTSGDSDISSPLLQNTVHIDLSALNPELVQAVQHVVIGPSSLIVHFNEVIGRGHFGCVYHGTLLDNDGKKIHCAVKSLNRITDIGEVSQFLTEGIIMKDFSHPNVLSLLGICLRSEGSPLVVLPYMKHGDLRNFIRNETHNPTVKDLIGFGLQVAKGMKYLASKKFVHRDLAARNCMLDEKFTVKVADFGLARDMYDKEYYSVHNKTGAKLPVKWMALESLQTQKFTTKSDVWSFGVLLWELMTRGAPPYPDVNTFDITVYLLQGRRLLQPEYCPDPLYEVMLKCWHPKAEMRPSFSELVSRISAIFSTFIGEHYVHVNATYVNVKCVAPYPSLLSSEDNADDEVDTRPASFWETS
T1 sequence (P07949 29-1114): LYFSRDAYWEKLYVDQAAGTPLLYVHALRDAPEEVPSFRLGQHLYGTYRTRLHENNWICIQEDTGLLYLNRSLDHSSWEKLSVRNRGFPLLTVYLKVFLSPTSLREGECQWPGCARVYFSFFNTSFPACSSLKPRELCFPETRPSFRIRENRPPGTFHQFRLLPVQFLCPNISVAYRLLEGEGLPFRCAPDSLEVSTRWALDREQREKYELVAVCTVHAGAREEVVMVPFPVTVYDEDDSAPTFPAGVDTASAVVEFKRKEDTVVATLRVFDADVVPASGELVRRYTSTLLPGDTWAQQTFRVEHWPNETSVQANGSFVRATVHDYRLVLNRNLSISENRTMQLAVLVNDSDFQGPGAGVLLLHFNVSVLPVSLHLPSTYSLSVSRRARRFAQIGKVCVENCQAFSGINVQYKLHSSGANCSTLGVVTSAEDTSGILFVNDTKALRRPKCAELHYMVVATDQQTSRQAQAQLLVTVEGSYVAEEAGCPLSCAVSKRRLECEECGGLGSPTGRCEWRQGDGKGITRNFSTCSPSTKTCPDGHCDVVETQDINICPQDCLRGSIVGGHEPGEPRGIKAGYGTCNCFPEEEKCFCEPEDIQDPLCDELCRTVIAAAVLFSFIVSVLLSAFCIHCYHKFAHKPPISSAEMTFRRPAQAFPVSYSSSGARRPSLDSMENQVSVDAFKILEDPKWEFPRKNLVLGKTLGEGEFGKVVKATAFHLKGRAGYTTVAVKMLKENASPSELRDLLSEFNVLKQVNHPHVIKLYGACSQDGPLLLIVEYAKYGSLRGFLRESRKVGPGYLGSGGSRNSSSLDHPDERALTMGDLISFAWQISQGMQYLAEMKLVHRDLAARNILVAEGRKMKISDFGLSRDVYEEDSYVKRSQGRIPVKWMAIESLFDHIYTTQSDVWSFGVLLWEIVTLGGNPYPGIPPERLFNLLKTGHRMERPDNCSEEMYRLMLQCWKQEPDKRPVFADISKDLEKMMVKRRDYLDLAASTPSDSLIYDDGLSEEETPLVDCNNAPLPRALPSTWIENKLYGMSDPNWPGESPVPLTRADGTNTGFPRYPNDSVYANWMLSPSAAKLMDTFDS
T2 sequence (P00533 25-1210 T790M/L858R): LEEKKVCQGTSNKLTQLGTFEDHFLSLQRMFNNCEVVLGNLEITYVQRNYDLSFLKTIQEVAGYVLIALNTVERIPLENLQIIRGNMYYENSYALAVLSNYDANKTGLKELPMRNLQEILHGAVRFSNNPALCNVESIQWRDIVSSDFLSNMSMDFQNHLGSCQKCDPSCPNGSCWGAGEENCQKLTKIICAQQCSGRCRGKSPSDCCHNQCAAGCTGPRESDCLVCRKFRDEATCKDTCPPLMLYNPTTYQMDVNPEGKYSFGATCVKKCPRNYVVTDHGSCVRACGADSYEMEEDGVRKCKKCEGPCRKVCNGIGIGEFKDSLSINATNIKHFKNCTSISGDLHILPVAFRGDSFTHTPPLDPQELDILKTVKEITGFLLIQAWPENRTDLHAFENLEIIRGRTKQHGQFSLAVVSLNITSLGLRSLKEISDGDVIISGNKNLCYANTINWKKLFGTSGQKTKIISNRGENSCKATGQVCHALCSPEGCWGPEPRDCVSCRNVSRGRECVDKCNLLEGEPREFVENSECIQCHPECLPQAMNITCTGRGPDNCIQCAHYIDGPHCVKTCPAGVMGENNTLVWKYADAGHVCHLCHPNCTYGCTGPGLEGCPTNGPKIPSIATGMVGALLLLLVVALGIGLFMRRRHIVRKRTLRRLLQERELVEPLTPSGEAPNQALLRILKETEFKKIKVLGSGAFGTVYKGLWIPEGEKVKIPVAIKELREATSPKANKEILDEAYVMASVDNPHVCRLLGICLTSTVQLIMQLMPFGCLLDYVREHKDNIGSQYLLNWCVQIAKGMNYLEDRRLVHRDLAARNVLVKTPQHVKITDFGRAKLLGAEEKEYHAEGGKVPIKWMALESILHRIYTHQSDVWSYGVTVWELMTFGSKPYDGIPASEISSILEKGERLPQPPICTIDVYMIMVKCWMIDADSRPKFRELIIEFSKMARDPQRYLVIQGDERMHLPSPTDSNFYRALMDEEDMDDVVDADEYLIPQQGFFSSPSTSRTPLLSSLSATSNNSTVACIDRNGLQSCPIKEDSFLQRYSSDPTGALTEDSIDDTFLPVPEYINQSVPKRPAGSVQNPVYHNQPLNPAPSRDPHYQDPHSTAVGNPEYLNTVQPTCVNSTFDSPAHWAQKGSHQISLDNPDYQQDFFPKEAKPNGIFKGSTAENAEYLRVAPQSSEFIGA

In the case of [2H][C@@](C)(c1cccc(-c2ncc(OCC3CCN(C)CC3)cn2)c1)n1nc(-c2cccc(C#N)c2)ccc1=O [1D228], the inhibition at 0.5 µM [1] is reported as 12.2%, the inhibition at 0.5 µM [2] is reported as 11.1% and the inhibition at 0.5 µM [3] is reported as 7.05%. The inhibition at 0.5 µM [4] was 3.21%, the inhibition at 0.5 µM [5] was 98.4% and the inhibition at 0.5 µM [6] was 99%. The IC50 [7] was 4.3 nM, the IC50 [8] was 890 nM and the IC50 [9] was 1330 nM. It also gave an IC50 [10] of 1 nM.

— publication PMC10636171 (Cell Death & Disease, 2023)
